{"source": "patent US11154491B2", "about": "“Use of Undaria extract to reduce signs of skin aging” (Kimberly-Clark Worldwide, Inc., priority 2014, dated 2021)", "origin": "cited, not measured here", "system": "3T3-L1 cells", "conditions": "literature"}
{"substance": "Fucoidan", "values": [{"measurement": "adipogenesis", "value": "inhibit adipogenesis"}]}
